Test system: wacher normotoner Hunde
Test: Diastolic blood pressure in conscious normotensive dogs
Format: in vivo
Conditions: Trandolapril alone, 3 mg/kg/Tag

SMILES: CCOC(=O)[C@H](CCc1ccccc1)N[C@@H](C)C(=O)N1[C@H](C(=O)O)C[C@H]2CCCC[C@@H]21 [Trandolapril, N-(1s-Carbethoxy-3-phenylpropyl)-S-alanyl-2S,3aR,7aS-octa-hydroindol-2-carbonsäure]
- Senkung des diastolischen Blutdruckes: weder Verapamil-SR allein (10 mg/kg/Tag) noch Trandolapril allein (3 mg/kg/Tag) den diastolischen Blutdruck wacher normotoner Hunde zu senken vermögen

From patent EP0508511B1 (KNOLL AG, priority 1991, dated 1992)
